pIC50: −log10 of the molar value.
Legend:
Fms kinase = Fms kinase (Homo sapiens, UniProt P07333); assay: Fms kinase biochemical activity assay (AlphaScreen, biotin-(E4Y)10 phosphorylation); settings: 100 μM ATP; read-out: Biochemical Inhibition IC50 Fms
Experimental: In one assay the biochemical activity IC50 values are determined with respect to inhibition of Fms kinase activity, where inhibition of phosphorylation of a peptide substrate is measured as a function of compound concentration. Compounds to be tested, dissolved in DMSO (1 μL), are added to a white 384-well plate (Costar #3705). Working stocks of Fms kinase (Invitrogen #PV3249), biotin-(E4Y)10 substrate (Upstate Biotech, Cat#12-440), and ATP (Sigma, Cat#A-3377) are prepared in 25 mM Hepes pH 7.5, 0.5 mM MgCl2, 2 mM MnCl2, 2 mM DTT, 0.01% BSA, and 0.01% Tween-20. All components are added to the 384-well plate for a final concentration of 1 ng/well Fms, 30 nM biotin-(E4Y)10 (Upstate Biotechnology) and 100 μM ATP in a volume of 20 μL. Each sample is at 5% DMSO. The plate is then incubated for 20 minutes at 30° C. Just before use, working stocks of donor and acceptor beads from the AlphaScreen PY20 Detection Kit (PerkinElmer, Cat#676601M) are prepared in 25 mM Hepes pH 7.5, pH 7.4, 100 mM EDTA, 0.01% BSA. To stop the reaction, the plate is uncovered in the dark and 5 μL of Donor Beads solution (Streptavidin beads) is added to each well. The plate is incubated at room temperature for 20 minutes. Five microliters of Acceptor Beads solution (PY20 coated beads) are then added to each well. The final concentration of each bead is 10 μg/mL. The plates are incubated at room temperature for 60 minutes. Fluorescence signal is recorded on the Envision reader. Phosphorylated substrate results in binding of the PY20 antibody and association of the donor and acceptor beads such that signal correlates with kinase activity. The signal vs. compound concentration is used to determine the IC50.

CYP1A2 = target: T1, CYP1A2 (Homo sapiens, UniProt P05177); assay: CYP1A2 inhibition (fluorescent substrate CEC); type: in vitro ADME; settings: read-out: Cyp IC50 1A2
T1 sequence (P05177 1-516): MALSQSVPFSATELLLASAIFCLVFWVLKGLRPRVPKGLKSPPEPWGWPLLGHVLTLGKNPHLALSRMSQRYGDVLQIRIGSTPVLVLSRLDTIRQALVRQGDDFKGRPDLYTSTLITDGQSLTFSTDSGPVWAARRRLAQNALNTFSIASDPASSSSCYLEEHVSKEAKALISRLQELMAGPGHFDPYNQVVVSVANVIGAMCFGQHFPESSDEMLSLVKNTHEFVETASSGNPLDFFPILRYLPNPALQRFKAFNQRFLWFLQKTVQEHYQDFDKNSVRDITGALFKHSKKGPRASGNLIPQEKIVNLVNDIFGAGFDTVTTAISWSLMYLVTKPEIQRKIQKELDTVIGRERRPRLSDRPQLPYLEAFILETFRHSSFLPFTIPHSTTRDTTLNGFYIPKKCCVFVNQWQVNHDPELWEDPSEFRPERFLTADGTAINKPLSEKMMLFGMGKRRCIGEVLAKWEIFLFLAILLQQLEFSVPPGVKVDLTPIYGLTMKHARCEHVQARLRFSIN
Experimental: CYP (Cytochrome P450) enzymes are the major drug metabolizing enzymes present in the liver. The inhibition of CYP enzyme activity (IC50) for each of CYP1A2, CYP2C19, CYP2C9, CYP2D6, CYP3A4(BFC) and CYP3A4(BQ) is determined for compounds, where inhibition of metabolism of a known substrate leads to a decrease in the fluorescence of the metabolized product. The fluorescence of the product is monitored as a function of compound concentration. Compounds are dissolved in DMSO to a concentration of 100 mM. These are diluted 1 μL into 82 μL of acetonitrile. An 11 μL aliquot of this solution is then added to 204 μL of cofactor mix (1.3% NADPH Regeneration system Solution A, 1.04% NADPH Regeneration system Solution B from BD Biosciences, 5% acetonitrile and 0.05% DMSO). These are then serially diluted 1:1 (160 μL to 160 μL co-factor mix) for a total of 10 points. A 10 μL aliquot of this final mixture is dispensed into 384 well assay plates and incubated for 10 minutes at 37° C. […] Assay plates are incubated at 37° C. (CYP1A2-15 min; CYP2C9-45 min; CYP2C19, 2D6 and 3A4-30 min) and read in a Tecan Safire 2 plate reader (CYP1A2, 2C19 and 3A4 409 ex/460 em; CYP2C9 and 2D6 409 ex/530 em). The signal versus compound concentration is used to determine the IC50. The enzymes and substrates for this assay are obtained from BD Biosciences.

[1] = Relative solubility by turbidity in aqueous buffers (pH 1.5, 4.5, 6.8, 7.4); type: physicochemical; settings: for turbidity threshold (L, M, H) 1.4: pH 1.5 (SGF); for turbidity threshold (L, M, H) 4.5: pH 4.5 (SIF); for turbidity threshold (L, M, H) 6.8: pH 6.8 (SIF); for turbidity threshold (L, M, H) 7.4: pH 7.4 (HEPES)
Experimental: As an indication of relative solubility, the turbidity of compounds in aqueous solutions is assessed. To assess possible compound properties in different physiological compartments, such as stomach, intestine, and blood, a series of aqueous buffers with varying pH is used. Thus each compound is diluted into four different physiologically relevant buffers and solution turbidity is measured by spectrophotometry.
Compounds are dissolved at a concentration of 25 mM in dimethyl sulfoxide, then serially diluted 1:1 into a 96 well plate, diluting 10 times in pure dimethyl sulfoxide, with the final well of each row a dimethyl sulfoxide blank. In an assay plate, 99 μL of appropriate buffer is added to each well, and 1 μL of each sample dilution is added to the buffer, achieving a range of final total concentrations in aqueous solutions having different pH. The buffers used are Simulated Gastric Fluid (SGF-pH 1.5) 0.5M NaCl, pH 1.5; Simulated Intestinal fluid (SIF-pH 4.5 and pH 6.8) 0.05M NaH2PO4, pH 4.5 and 6.8; and Hepes Buffer (HEPES-pH 7.4) 10 mM HEPES, 150 mM NaCl, pH 7.4. Control compounds pyrene, estriol and propranolol HCl are also assessed. Plates are spun and then mixed for 1 minute, and the absorbance is read using a Tecan Safire II to read wavelengths in the visible range (490, 535, and 650 nm) at four locations per well, reflecting the degree of turbidity present. The average optical density for each wavelength in each well is graphed vs. compound concentration, and the concentration at which the curve crosses a threshold O.D. of 0.01 for each wavelength is reported as the endpoint turbidity assay result. The average of the three wavelengths is used to compare turbidity of compounds.

Chain of Fms kinase (P07333 20-972): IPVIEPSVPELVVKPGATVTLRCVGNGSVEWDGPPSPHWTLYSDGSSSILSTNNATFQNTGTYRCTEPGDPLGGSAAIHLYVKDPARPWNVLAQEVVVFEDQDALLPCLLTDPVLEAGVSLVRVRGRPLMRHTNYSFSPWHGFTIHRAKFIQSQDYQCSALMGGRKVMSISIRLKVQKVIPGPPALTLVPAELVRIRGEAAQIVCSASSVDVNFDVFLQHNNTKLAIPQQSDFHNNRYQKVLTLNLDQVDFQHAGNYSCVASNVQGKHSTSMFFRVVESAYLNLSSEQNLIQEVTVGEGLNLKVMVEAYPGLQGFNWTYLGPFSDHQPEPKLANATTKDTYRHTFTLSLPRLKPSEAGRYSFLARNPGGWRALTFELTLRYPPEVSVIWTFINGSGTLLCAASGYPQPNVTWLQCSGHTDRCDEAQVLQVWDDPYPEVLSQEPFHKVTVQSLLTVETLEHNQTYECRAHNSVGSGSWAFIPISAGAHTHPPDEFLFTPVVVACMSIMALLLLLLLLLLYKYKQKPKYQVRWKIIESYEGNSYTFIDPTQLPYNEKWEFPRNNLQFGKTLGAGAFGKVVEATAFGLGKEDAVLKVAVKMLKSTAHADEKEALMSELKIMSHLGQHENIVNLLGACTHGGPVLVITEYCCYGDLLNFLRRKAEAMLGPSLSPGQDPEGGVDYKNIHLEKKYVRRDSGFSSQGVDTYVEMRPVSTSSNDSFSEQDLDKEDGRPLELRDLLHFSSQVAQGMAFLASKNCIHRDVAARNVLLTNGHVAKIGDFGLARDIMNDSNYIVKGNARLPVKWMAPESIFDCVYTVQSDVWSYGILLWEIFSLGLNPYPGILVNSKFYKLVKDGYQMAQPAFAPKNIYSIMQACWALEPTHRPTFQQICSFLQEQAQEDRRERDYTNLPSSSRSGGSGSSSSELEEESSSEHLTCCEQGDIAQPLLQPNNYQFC

SMILES	pIC50 (Fms kinase)	pIC50 (CYP1A2)	turbidity threshold (L, M, H) 1.4 [1]	turbidity threshold (L, M, H) 4.5 [1]	turbidity threshold (L, M, H) 6.8 [1]	turbidity threshold (L, M, H) 7.4 [1]
CC1CCC(Nc2ncc(Cc3c[nH]c4ncc(Cl)cc34)cn2)CC1 (stereo not shown) [Compound P-3009, [5-(5-Chloro-1H-pyrrolo[2,3-b]pyridin-3-ylmethyl)-pyrimidin-2-yl]-(4-methyl-cyclohexyl)-amine]	> 7.00	< 5.00				
Cc1cnc2[nH]cc(Cc3cnc(Nc4ccc(F)cc4)nc3)c2c1 [Compound P-3010, (4-Fluoro-phenyl)-[5-(5-methyl-1H-pyrrolo[2,3-b]pyridin-3-ylmethyl)-pyrimidin-2-yl]-amine]	> 8.00	< 5.00	H (high solubility if the threshold concentration is >250 μm)	L (low solubility if the threshold concentration is <31.3 μM)	L (low solubility if the threshold concentration is <31.3 μM)	M (moderate solubility if the threshold concentration is 31.3 μM to 250 μM)
Clc1ccc(Nc2ncc(Cc3c[nH]c4ncc(Cl)cc34)cn2)cc1 [Compound P-3011, (4-Chloro-phenyl)-[5-(5-chloro-1H-pyrrolo[2,3-b]pyridin-3-ylmethyl)-pyrimidin-2-yl]-amine]	> 8.00	< 5.00				
Fc1ccc(Nc2ncc(Cc3c[nH]c4ncc(Cl)cc34)cn2)cc1 [Compound P-3012, [5-(5-Chloro-1H-pyrrolo[2,3-b]pyridin-3-ylmethyl)-pyrimidin-2-yl]-(4-fluoro-phenyl)-amine]	> 8.00	< 5.00	M (moderate solubility if the threshold concentration is 31.3 μM to 250 μM)	M (moderate solubility if the threshold concentration is 31.3 μM to 250 μM)	M (moderate solubility if the threshold concentration is 31.3 μM to 250 μM)	M (moderate solubility if the threshold concentration is 31.3 μM to 250 μM)
Fc1nc(NC2CCC(F)(F)CC2)ccc1Cc1c[nH]c2ncc(Cl)cc12 [Compound P-3013, [5-(5-Chloro-1H-pyrrolo[2,3-b]pyridin-3-ylmethyl)-6-fluoro-pyridin-2-yl]-(4,4-difluoro-cyclohexyl)-amine]	> 8.00	5.00 to 5.30	L (low solubility if the threshold concentration is <31.3 μM)	L (low solubility if the threshold concentration is <31.3 μM)	L (low solubility if the threshold concentration is <31.3 μM)	L (low solubility if the threshold concentration is <31.3 μM)
Fc1ccccc1Nc1ncc(Cc2c[nH]c3ncc(Cl)cc23)cn1 [Compound P-3014, [5-(5-Chloro-1H-pyrrolo[2,3-b]pyridin-3-ylmethyl)-pyrimidin-2-yl]-(2-fluoro-phenyl)-amine]	> 8.00		H (high solubility if the threshold concentration is >250 μm)	M (moderate solubility if the threshold concentration is 31.3 μM to 250 μM)	M (moderate solubility if the threshold concentration is 31.3 μM to 250 μM)	M (moderate solubility if the threshold concentration is 31.3 μM to 250 μM)
Clc1cnc2[nH]cc(Cc3cnc(Nc4ccccc4Cl)nc3)c2c1 [Compound P-3015, (2-Chloro-phenyl)-[5-(5-chloro-1H-pyrrolo[2,3-b]pyridin-3-ylmethyl)-pyrimidin-2-yl]-amine]	> 8.00					
CCc1ccc(Nc2ccc(C(=O)c3c[nH]c4ncnc(NCC(C)(C)O)c34)c(F)n2)cn1 [Compound P-4064, [6-[(6-ethyl-3-pyridyl)amino]-2-fluoro-3-pyridyl]-[4-[(2-hydroxy-2-methyl-propyl)amino]-7H-pyrrolo[2,3-d]pyrimidin-5-yl]methanone]	> 8.00	< 5.00				
COc1ccc(Nc2ccc(C(=O)c3c[nH]c4ncnc(N5CCCCC5)c34)c(F)n2)cn1 [Compound P-4069, [2-fluoro-6-[(6-methoxy-3-pyridyl)amino]-3-pyridyl]-[4-(1-piperidyl)-7H-pyrrolo[2,3-d]pyrimidin-5-yl]methanone]	> 6.00	< 5.00				
CNc1ncnc2[nH]cc(C(=O)c3ccc(Nc4ccc(OC)nc4)nc3OC)c12 [Compound P-4085, [2-methoxy-6-[(6-methoxy-3-pyridyl)amino]-3-pyridyl]-[4-(methylamino)-7H-pyrrolo[2,3-d]pyrimidin-5-yl]methanone]	> 8.00					
CCc1ccc(Nc2ccc(C(=O)c3c[nH]c4ncnc(Nc5ccc(C)nc5)c34)c(F)n2)cn1 [Compound P-4086, [6-[(6-ethyl-3-pyridyl)amino]-2-fluoro-3-pyridyl]-[4-[(6-methyl-3-pyridyl)amino]-7H-pyrrolo[2,3-d]pyrimidin-5-yl]methanone]	> 6.00					
O=C(c1ccc(Nc2ccc(C3CC3)nc2)nc1F)c1c[nH]c2ncnc(NCC(F)(F)F)c12 [Compound P-4090, [6-[(6-cyclopropyl-3-pyridyl)amino]-2-fluoro-3-pyridyl]-[4-(2,2,2-trifluoroethylamino)-7H-pyrrolo[2,3-d]pyrimidin-5-yl]methanone]	> 7.00	< 5.00				
Cc1ccc(Nc2ccc(C(=O)c3c[nH]c4ncnc(NCC5CC5)c34)c(F)n2)cn1 [Compound P-4113, [4-(cyclopropylmethylamino)-7H-pyrrolo[2,3-d]pyrimidin-5-yl]-[2-fluoro-6-[(6-methyl-3-pyridyl)amino]-3-pyridyl]methanone]	> 8.00	< 5.00				
COc1ccc(Nc2ccc(C(=O)c3c[nH]c4ncnc(NC5CC5)c34)c(F)n2)cn1 [Compound P-4126, [4-(cyclopropylamino)-7H-pyrrolo[2,3-d]pyrimidin-5-yl]-[2-fluoro-6-[(6-methoxy-3-pyridyl)amino]-3-pyridyl]methanone]	> 8.00	> 5.30				

From patent publication US8901118B2, “Compounds and methods for kinase modulation, and indications therefor” (Plexxikon Inc., priority 2010, dated 2014)
